Data taken from EP4745135A1 (Gluetacs Therapeutics (Shanghai) Co., Ltd., priority 2023, dated 2025).

How the values were obtained:
[1] = system: Human multiple myeloma cell (MM.1S); assay: Tumor cell proliferation inhibition (CellTiter-Meiluncell luminescent cell viability assay); conditions: Homo sapiens, MM1.S, 96 h; for inhibition at 0.01 µM: read-out: Inhibition Rate at 10 nM (%); for inhibition at 0.5 µM: read-out: Inhibition Rate at 500 nM (%)
IKZF3 = biological target: T1, IKZF3 (Homo sapiens, UniProt Q96SW2+Q9UKT9); assay: Western blot, degradation of substrate protein in hPBMCs; type: cell-based
T1 construct: effects of the compounds of the present disclosure on the expression of target proteins in cells; endogenous in cells; host or cells: human PBMCs (Milecell Biotechnologies)
T1 sequence (Q9UKT9 whole entry): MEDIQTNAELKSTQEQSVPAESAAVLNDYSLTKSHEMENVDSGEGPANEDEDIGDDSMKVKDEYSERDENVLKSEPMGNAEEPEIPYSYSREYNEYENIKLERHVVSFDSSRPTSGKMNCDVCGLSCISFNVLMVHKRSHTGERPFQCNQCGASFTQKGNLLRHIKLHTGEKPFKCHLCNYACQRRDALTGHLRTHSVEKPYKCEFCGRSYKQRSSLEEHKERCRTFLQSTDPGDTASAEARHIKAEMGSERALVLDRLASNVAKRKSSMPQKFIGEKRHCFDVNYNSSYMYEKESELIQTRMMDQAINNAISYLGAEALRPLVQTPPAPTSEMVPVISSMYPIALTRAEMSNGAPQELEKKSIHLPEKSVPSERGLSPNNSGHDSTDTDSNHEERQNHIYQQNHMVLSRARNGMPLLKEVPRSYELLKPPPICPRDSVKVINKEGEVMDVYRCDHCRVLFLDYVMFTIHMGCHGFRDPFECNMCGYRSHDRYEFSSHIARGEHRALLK
T1 sequence (Q96SW2 whole entry): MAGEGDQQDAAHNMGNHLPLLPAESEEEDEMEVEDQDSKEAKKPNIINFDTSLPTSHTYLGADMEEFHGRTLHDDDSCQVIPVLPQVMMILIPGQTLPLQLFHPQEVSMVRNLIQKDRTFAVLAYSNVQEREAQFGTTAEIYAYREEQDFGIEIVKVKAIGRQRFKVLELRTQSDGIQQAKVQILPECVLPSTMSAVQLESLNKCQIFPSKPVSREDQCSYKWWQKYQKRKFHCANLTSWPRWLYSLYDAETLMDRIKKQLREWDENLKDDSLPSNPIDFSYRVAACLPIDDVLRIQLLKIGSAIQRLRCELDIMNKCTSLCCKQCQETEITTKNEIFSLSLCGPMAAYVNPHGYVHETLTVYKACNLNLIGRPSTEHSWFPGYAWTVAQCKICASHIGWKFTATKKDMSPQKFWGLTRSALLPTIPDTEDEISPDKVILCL
T1 sequence (Q16531 whole entry partner): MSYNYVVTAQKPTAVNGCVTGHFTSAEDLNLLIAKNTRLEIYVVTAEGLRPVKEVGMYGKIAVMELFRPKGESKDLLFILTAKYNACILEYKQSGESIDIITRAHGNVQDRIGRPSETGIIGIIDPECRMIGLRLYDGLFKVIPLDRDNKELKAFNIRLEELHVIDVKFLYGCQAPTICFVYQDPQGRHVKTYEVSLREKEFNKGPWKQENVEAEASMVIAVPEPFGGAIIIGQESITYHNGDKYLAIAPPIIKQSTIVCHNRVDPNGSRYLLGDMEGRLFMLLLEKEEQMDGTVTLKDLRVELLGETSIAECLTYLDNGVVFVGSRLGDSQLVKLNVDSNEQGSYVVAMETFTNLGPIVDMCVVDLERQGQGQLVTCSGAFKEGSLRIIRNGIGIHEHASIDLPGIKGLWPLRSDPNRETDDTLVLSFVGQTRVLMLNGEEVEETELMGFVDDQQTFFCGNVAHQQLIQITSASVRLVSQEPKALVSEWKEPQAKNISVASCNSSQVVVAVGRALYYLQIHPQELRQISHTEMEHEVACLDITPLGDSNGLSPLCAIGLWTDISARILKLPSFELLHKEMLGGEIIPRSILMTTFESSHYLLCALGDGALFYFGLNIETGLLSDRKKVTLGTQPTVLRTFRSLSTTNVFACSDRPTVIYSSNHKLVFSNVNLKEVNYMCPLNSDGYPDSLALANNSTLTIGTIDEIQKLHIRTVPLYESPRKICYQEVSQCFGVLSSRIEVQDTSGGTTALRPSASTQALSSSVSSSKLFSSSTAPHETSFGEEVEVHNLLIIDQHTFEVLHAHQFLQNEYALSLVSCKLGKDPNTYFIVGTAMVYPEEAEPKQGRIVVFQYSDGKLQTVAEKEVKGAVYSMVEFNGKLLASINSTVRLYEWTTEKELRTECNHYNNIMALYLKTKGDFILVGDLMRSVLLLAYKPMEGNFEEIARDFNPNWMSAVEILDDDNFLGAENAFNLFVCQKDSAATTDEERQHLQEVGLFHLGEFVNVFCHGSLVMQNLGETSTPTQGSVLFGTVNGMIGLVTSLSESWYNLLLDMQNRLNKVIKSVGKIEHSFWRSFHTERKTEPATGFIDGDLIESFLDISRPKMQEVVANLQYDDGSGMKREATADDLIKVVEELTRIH

WEE1 = biological target: T2, WEE1 (Homo sapiens, UniProt P30291+Q96SW2); assay: as above; type: cell-based
T2 construct: effects of the compounds of the present disclosure on the expression of target proteins in cells; endogenous in cells; host or cells: human PBMCs (Milecell Biotechnologies)
T2 sequence (P30291 whole entry): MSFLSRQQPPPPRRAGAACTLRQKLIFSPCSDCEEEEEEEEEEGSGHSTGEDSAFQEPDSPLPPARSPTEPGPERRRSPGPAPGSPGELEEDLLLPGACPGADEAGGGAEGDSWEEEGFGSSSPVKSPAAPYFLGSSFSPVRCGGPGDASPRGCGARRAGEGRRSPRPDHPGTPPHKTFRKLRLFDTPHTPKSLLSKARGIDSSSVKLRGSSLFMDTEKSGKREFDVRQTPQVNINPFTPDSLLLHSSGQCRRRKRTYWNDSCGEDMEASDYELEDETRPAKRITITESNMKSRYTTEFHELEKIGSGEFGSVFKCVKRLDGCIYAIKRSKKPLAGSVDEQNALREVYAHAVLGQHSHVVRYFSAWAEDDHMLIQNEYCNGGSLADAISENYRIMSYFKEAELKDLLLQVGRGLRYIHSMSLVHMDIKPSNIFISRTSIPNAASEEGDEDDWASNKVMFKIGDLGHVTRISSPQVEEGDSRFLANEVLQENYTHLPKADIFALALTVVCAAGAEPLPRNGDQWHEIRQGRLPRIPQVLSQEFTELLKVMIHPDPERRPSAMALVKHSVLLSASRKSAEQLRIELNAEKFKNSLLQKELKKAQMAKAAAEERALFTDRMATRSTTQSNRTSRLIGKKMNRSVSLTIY
T2 sequence (Q96SW2 whole entry): as the sequence (Q96SW2 whole entry) above
T2 sequence (Q16531 whole entry partner): as the sequence (Q16531 whole entry partner) above

CK1α = biological target: T3, CK1α (Homo sapiens, UniProt P48729+Q96SW2); assay: as above; type: cell-based
T3 construct: effects of the compounds of the present disclosure on the expression of target proteins in cells; endogenous in cells; host or cells: human PBMCs (Milecell Biotechnologies)
T3 sequence (P48729 whole entry): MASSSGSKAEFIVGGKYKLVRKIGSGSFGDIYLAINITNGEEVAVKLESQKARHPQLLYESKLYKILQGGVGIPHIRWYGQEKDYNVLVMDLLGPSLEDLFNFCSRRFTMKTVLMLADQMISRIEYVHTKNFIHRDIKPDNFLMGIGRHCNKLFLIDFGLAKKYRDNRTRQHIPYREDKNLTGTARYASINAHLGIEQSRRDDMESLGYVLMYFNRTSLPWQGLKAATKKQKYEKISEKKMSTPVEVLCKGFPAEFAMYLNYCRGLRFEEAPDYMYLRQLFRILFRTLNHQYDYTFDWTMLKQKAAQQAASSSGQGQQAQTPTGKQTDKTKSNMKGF
T3 sequence (Q96SW2 whole entry): as the sequence (Q96SW2 whole entry) above
T3 sequence (Q16531 whole entry partner): as the sequence (Q16531 whole entry partner) above

IKZF1 = biological target: T4, IKZF1 (Homo sapiens, UniProt Q13422+Q96SW2); assay: as above; type: cell-based
T4 construct: effects of the compounds of the present disclosure on the expression of target proteins in cells; endogenous in cells; host or cells: human PBMCs (Milecell Biotechnologies)
T4 sequence (Q13422 whole entry): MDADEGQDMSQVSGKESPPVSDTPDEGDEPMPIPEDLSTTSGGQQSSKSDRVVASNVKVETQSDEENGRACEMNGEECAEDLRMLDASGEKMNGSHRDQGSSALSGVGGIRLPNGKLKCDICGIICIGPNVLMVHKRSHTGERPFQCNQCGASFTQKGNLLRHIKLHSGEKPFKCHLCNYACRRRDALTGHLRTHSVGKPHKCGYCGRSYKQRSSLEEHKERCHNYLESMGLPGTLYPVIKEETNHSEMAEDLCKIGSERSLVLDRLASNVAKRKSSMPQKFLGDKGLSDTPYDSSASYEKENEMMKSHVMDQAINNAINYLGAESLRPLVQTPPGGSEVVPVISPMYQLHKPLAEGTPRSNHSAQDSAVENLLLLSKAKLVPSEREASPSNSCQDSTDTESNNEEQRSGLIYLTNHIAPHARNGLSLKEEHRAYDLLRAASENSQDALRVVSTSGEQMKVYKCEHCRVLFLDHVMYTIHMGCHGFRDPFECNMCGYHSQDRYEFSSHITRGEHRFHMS
T4 sequence (Q96SW2 whole entry): as the sequence (Q96SW2 whole entry) above
T4 sequence (Q16531 whole entry partner): as the sequence (Q16531 whole entry partner) above

IKZF2 = biological target: T5, IKZF2 (Homo sapiens, UniProt Q96SW2+Q9UKS7); assay: as above; type: cell-based
T5 construct: effects of the compounds of the present disclosure on the expression of target proteins in cells; endogenous in cells; host or cells: human PBMCs (Milecell Biotechnologies)
T5 sequence (Q9UKS7 whole entry): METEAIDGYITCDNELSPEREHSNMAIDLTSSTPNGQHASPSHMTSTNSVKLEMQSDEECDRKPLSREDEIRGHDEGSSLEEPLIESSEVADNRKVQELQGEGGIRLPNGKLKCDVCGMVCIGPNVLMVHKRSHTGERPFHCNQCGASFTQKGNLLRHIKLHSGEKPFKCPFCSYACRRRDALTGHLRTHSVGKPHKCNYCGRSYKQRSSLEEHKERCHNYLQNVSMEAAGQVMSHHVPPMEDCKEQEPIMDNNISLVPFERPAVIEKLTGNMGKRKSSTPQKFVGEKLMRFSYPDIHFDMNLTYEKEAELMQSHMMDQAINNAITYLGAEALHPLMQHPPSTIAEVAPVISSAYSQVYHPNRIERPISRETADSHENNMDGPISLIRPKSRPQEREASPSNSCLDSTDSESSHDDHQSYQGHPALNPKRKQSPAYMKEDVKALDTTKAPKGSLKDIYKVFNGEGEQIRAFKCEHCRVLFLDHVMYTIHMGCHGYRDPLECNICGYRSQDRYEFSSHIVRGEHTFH
T5 sequence (Q96SW2 whole entry): as the sequence (Q96SW2 whole entry) above
T5 sequence (Q16531 whole entry partner): as the sequence (Q16531 whole entry partner) above

[2] = biological target: T6, human Cereblon WT GST-tagged protein (Homo sapiens, UniProt Q96SW2); assay: CRBN-binding affinity, HTRF (CEREBLON BINDING kit); conditions: for inhibition at 0.5 µM: read-out: Inhibition Rate at 0.5 µM (%); for inhibition at 2 µM: read-out: Inhibition Rate at 2 µM (%)
T6 construct: purchased CISBIO 64BDCRBNPEH
T6 sequence (Q96SW2 whole entry): as the sequence (Q96SW2 whole entry) above

[3] = system: Human multiple myeloma peripheral blood B lymphocyte cell (RPMI-8226); assay: Tumor cell proliferation inhibition (CellTiter-Meiluncell luminescent cell viability assay); conditions: RPMI-8226, 96 h; for inhibition at 0.01 µM: read-out: Inhibition Rate at 10 nM (%); for inhibition at 0.5 µM: read-out: Inhibition Rate at 500 nM (%)
GSPT1 = assay: Western blot, degradation of substrate protein in hPBMCs; type: cell-based, Human
[4] = system: Human acute T lymphocytic leukemia cell (Molt4); assay: Tumor cell proliferation inhibition (CellTiter-Meiluncell luminescent cell viability assay); conditions: MOLT-4, 96 h; for inhibition at 0.01 µM: read-out: Inhibition Rate at 10 nM (%); for inhibition at 0.5 µM: read-out: Inhibition Rate at 500 nM (%)
[5] = system: Human myeloid monocytic leukemia cell (MV-4-11); assay: as above; conditions: MV4-11, 96 h; for inhibition at 0.01 µM: read-out: Inhibition Rate at 10 nM (%); for inhibition at 0.5 µM: read-out: Inhibition Rate at 500 nM (%)
[6] = system: Human breast cancer cell (MCF-7); assay: as above; conditions: MCF7, 96 h; for inhibition at 0.5 µM: read-out: Inhibition Rate at 500 nM (%)
[7] = Western blot, 24 hours of compound treatment, compounds tested at 50 nM and 500 nM (concentration for the table not stated)
[8] = 24 hours treatment, compounds at 50 nM and 500 nM (concentration behind the class not stated)

Structure (SMILES) | inhibition at 0.01 µM [1] | inhibition at 0.5 µM [1] | IKZF3 substrate protein remaining % (IKZF3; [7]) | Wee1 substrate protein remaining % (WEE1; [7]) | CK1α substrate protein remaining % (CK1α; [7]) | IKZF 1 substrate protein remaining % (IKZF1; [7]) | IKZF2 substrate protein remaining % (IKZF2; [7]) | inhibition at 0.5 µM [2] | inhibition at 2 µM [2] | inhibition at 0.01 µM [3] | inhibition at 0.5 µM [3] | GSPT1 substrate protein remaining % (GSPT1; [7]) | inhibition at 0.01 µM [4] | inhibition at 0.5 µM [4] | inhibition at 0.01 µM [5] | inhibition at 0.5 µM [5] | inhibition at 0.5 µM [6] | also measured
O=C1CCC(N2Cc3cc(CN4CC=C(c5ccnc(Cl)c5Cl)CC4)ccc3C2=S)C(=O)N1 (centres unmarked) [GT-08482, 3-(5-((2',3'-dichloro-3,6-dihydro-[4,4'-bipyridin]-1(2H)-yl)methyl)-1-thioxoisoindolin-2-yl)piperidine-2,6-dione] | 50 to 60% | 80 to 100% | B (80%< substrate protein remaining %≤ 100%) | A (0% ≤ substrate protein remaining % ≤ 80%) | B (80%< substrate protein remaining %≤ 100%) | B (80%< substrate protein remaining %≤ 100%) | B (80%< substrate protein remaining %≤ 100%) | 60 to 80% | 80 to 100% | 10 to 20% | 60 to 70% | A (0% ≤ substrate protein remaining % ≤ 80%) | -5 to 0% | 80 to 100% | 40 to 60% | 80 to 100% |  | 
O=C1CCC(N2Cc3cc(CN4CC=C(c5cncc(Cl)c5Cl)CC4)ccc3C2=S)C(=O)N1 (centres unmarked) [GT-08489, 3-(5-((4,5-dichloro-3',6'-dihydro-[3,4'-bipyridin]-1'(2'H)-yl)methyl)-1-thioxoisoindolin-2-yl)piperidine-2,6-dione] | 10 to 20% | 80 to 100% | A (0% ≤ substrate protein remaining % ≤ 80%) | A (0% ≤ substrate protein remaining % ≤ 80%) | B (80%< substrate protein remaining %≤ 100%) | B (80%< substrate protein remaining %≤ 100%) | A (0% ≤ substrate protein remaining % ≤ 80%) | 60 to 80% | 80 to 100% | 0 to 5% | 70 to 80% | A (0% ≤ substrate protein remaining % ≤ 80%) | 0 to 5% | 80 to 100% | 30 to 40% | 80 to 100% | 50 to 60% | 
O=C1CCC(N2Cc3cc(CN4CC=C(c5cncc(Cl)c5)CC4)ccc3C2=S)C(=O)N1 (centres unmarked) [GT-08490, 3-(5-((5-chloro-3',6'-dihydro-[3,4'-bipyridin]-1'(2'H)-yl)methyl)-1-thioxoisoindolin-2-yl)piperidine-2,6-dione] | 50 to 60% | 80 to 100% | A (0% ≤ substrate protein remaining % ≤ 80%) | A (0% ≤ substrate protein remaining % ≤ 80%) | B (80%< substrate protein remaining %≤ 100%) | B (80%< substrate protein remaining %≤ 100%) | A (0% ≤ substrate protein remaining % ≤ 80%) | 60 to 80% | 80 to 100% | 20 to 30% | 70 to 80% | A (0% ≤ substrate protein remaining % ≤ 80%) | 0 to 5% | 80 to 100% | 40 to 60% | 80 to 100% | 50 to 60% | inhibition at 0.01 µM ([6]; read-out: Inhibition Rate at 10 nM (%)): 30 to 40%
O=C1CCC(N2Cc3cc(CN4CC=C(c5ncccc5F)CC4)ccc3C2=S)C(=O)N1 (centres unmarked) [GT-08491, 3-(5-((3-fluoro-3',6'-dihydro-[2,4'-bipyridin]-1'(2'H)-yl)methyl)-1-thioxoisoindolin-2-yl)piperidine-2,6-dione] | 10 to 20% | 80 to 100% | B (80%< substrate protein remaining %≤ 100%) | A (0% ≤ substrate protein remaining % ≤ 80%) | B (80%< substrate protein remaining %≤ 100%) | B (80%< substrate protein remaining %≤ 100%) | B (80%< substrate protein remaining %≤ 100%) | 80 to 100% | 80 to 100% | 10 to 20% | 70 to 80% | A (0% ≤ substrate protein remaining % ≤ 80%) | 20 to 30% | 80 to 100% | 18 to 25% | 80 to 100% | 40 to 50% | 
Cc1cccc(N2CCN(Cc3ccc4c(c3)CN(C3CCC(=O)NC3=O)C4=S)CC2)c1 (centres unmarked) [GT-08602, 3-(1-thioxo-5-((4-(m-tolyl)piperazin-1-yl)methyl)isoindolin-2-yl)piperidine-2,6-dione] | 10 to 20% | 80 to 100% | B (80%< substrate protein remaining %≤ 100%) | A (0% ≤ substrate protein remaining % ≤ 80%) | B (80%< substrate protein remaining %≤ 100%) | B (80%< substrate protein remaining %≤ 100%) | B (80%< substrate protein remaining %≤ 100%) | 40 to 53% | 80 to 100% | 10 to 20% | 70 to 80% | A (0% ≤ substrate protein remaining % ≤ 80%) | -5 to 0% | 80 to 100% | 18 to 25% | 80 to 100% |  | 
O=C1CCC(N2Cc3cc(CN4CCC(c5cccc(Br)c5)CC4)ccc3C2=S)C(=O)N1 (centres unmarked) [GT-08617, 3-(5-((4-(3-bromophenyl)piperidin-1-yl)methyl)-1-thioxoisoindolin-2-yl)piperidine-2,6-dione] | 30 to 40% | 80 to 100% | B (80%< substrate protein remaining %≤ 100%) | B (80%< substrate protein remaining %≤ 100%) | B (80%< substrate protein remaining %≤ 100%) | B (80%< substrate protein remaining %≤ 100%) | B (80%< substrate protein remaining %≤ 100%) | 40 to 53% | 80 to 100% | 10 to 20% | 50 to 60% | A (0% ≤ substrate protein remaining % ≤ 80%) | 20 to 30% | 80 to 100% | 5 to 10% | 80 to 100% |  | 
O=C1CCC(N2Cc3cc(CN4CCN(c5n[nH]c6cc(F)ccc56)CC4)ccc3C2=S)C(=O)N1 (centres unmarked) [GT-09260, 3-(5-((4-(6-fluoro-1H-indazol-3-yl)piperazin-1-yl)methyl)-1-thioxoisoindolin-2-yl)piperidine-2,6-dione] | 10 to 20% | 80 to 100% |  |  |  |  |  | 60 to 80% | 80 to 100% | 5 to 10% | 40 to 50% |  | 20 to 30% | 80 to 100% | 18 to 25% | 80 to 100% |  | IKZF3 substrate protein remaining % (IKZF3; [8]): B (80%< substrate protein remaining %≤ 100%); Wee1 substrate protein remaining % (WEE1; [8]): B (80%< substrate protein remaining %≤ 100%); CK1α substrate protein remaining % (CK1α; [8]): B (80%< substrate protein remaining %≤ 100%); IKZF 1 substrate protein remaining % (IKZF1; [8]): B (80%< substrate protein remaining %≤ 100%); IKZF2 substrate protein remaining % (IKZF2; [8]): B (80%< substrate protein remaining %≤ 100%); GSPT1 substrate protein remaining % (GSPT1; [8]): A (0% ≤ substrate protein remaining % ≤ 80%)
